Experimental data reported in patent US8889156B2, “Calcium-binding agents induce hair growth and/or nail growth” (priority 2009, dated 2014).

How the values were obtained:
[1] = Tissue specific binding of labeled peptides to sections of human teeth (CLSM); settings: 5(6)-carboxyfluorescein-labeled peptide, ten minutes
Description: In order to investigate the tissue specificity of DSS peptide binding to tooth tissue, sections of human teeth were exposed to DSS peptides and variants, then imaged by CLSM. The peptides utilized for these experiments were 8DSS (SEQ ID NO:33), 8ASS (SEQ ID NO:26), 8DAA (SEQ ID NO:40), 8NAA (SEQ ID NO:41), 4DSS (SEQ ID NO:31), 4ESS (SEQ ID NO:34), 4NSS (SEQ ID NO:35), 4DTT (SEQ ID NO:36), 4ETT (SEQ ID NO:37), 4NTT (SEQ ID NO:38), and 6DSS (SEQ ID NO:32). Sagittal sections of human teeth extracted during normal clinical practice were polished and then incubated for ten minutes in a solution of the appropriate 5(6) carboxyfluorescein-labeled peptide (12.5pM) containing 10 mM NaCl and 50 mM HEPES, pH 7.0. Control samples were prepared without peptide. Samples were washed extensively after treatment and imaged by CLSM using blue laser illumination (A=488 nm) and a FITC emission filter, with identical camera and microscope settings for each sample. For each section, multiple scans were collected and assembled in an automated mode to generate panels of images representing an area of 13×13 mm, sufficient in most cases to encompass the whole section. […] Significant binding was also seen to the edges of the pulp cavity.

[2] = Binding of calcium phosphate to immobilized DSS peptides on streptavidin-coated polystyrene beads; settings: biotin-conjugated peptide on beads, saturated CaHPO4 solutions
Protocol: Streptavidin-coated polystyrene beads with an average diameter of 4 μm (Spherotech, Lake Forest, Ill.) were incubated with either biotin-conjugated 8DSS (SEQ ID NO:33) peptide or unconjugated biotin (control beads). Beads were washed with PBS to remove unbound peptide (or unbound biotin in control beads) and incubated in a solution of PBS+1 mM CaCl2+1 mM NaHPO4 for 12 days prior to imaging. […] DSS-containing peptides containing C-terminal biotin labels were then synthesized and immobilized on streptavidin-coated beads. The beads were washed and incubated in solutions containing varying concentrations of CaHPO4 as before. Consistent with previous observations for the dentin phosphoproteins/phosphosphoryns as well as other phosphoproteins (Saito et al. (1997) Bone 21: 305-311; Saito et al. (2000) J Bone Miner Res., 15: 1615-1619), these immobilized peptides caused coaggregation of the beads with particles of amorphous CaHPO4 and eventually led to the deposition of crystalline material around the bead. […] By comparison, in the biotin-blocked control sample, nearly all beads were unaggregated and unassociated with precipitate (FIG. 9, panel B).

Substance: DSS DSS DSSDSS DSS DSS DSS DSS (DSSDSSDSSDSSDSSDSSDSSDSS; synthetic calcium-binding peptide 8DSS)
- tissue pattern of binding in the tooth section [1]: bound primarily to the mantle dentin
- level of binding (staining) to tooth surfaces ([1]; identical settings): the greatest levels of staining
- aggregation/accretion of calcium phosphate by immobilized peptide [2]: effectively aggregate amorphous calcium phosphate
